We go through 67 compounds from patent US9802899B2, “Heterocyclic compounds as pesticides” (BAYER CROPSCIENCE AG, priority 2012, dated 2017).

The first data set can be described thus: Determination of the log P values by HPLC (formic acid method). In kind it is physicochemical. Conditions: reversed-phase HPLC column (C 18), reversed-phase column (C 18), acidic range (pH 3.4), 55° C. Here is the method:
1) Description of Method for Determination of the Log P Values (Formic Acid Method)
Eluents for determination in the acidic range (pH 3.4):
Eluent A: acetonitrile+1 ml of formic acid/liter. Eluent B: water+0.9 ml of formic acid/liter.
The lambda max values were determined in the maxima of the chromatographic signals using the UV spectra from 200 nm to 400 nm.
By chromatographic logP is commonly meant lipophilicity estimated from chromatographic retention. Low readings indicate lower lipophilicity, high ones higher lipophilicity. As to `O=C(Nc1ccn(-c2c(F)cc(C(F)(F)F)cc2F)n1)c1ccccc1C(F)(F)F` [Compound I-1-230, N-{1-[2,6-Difluoro-4-(trifluoromethyl)phenyl]-1H-pyrazol-3-yl}-2-(trifluoromethyl)benzamide], the chromatographic logP is 3.39. Consider `CCOc1cccc(Cl)c1-n1ccc(N)n1` [1-(2-Chloro-6-ethoxyphenyl)-1H-pyrazole-3-amine], for which the chromatographic logP was determined as 2.13.

`O=C(Nc1ccn(-c2ncnc(F)c2F)n1)c1ccccc1C(F)(F)F` [Compound I-1-169, N-[1-(5,6-Difluoropyrimidin-4-yl)-1H-pyrazol-3-yl]-2-(trifluoromethyl)benzamide] registered a chromatographic logP of 2.62. Regarding `Nc1cc(F)c(-n2ccc(NC(=O)c3ccccc3C(F)(F)F)n2)c(F)c1` [Compound I-1-227, N-[1-(4-Amino-2,6-difluorophenyl)-1H-pyrazol-3-yl]-2-(trifluoromethyl)benzamide], the chromatographic logP stood at 2.32. In turn, `O=C(Nc1ccn(-c2nccc(I)c2F)n1)c1ccccc1C(F)(F)F` [Compound I-1-576, N-[1-(3-Fluoro-4-iodopyridin-2-yl)-1H-pyrazol-3-yl]-2-(trifluoromethyl)benzamide] returned a chromatographic logP of 2.96.

Compound `Nc1ccn(-c2cccnc2Cl)n1` [1-(2-Chloropyridin-3-yl)-1H-pyrazole-3-amine] had a chromatographic logP of 0.62.

`O=C(Nc1cc[nH]n1)c1ccccc1C(F)(F)F` [N-(1H-Pyrazol-3-yl)-2-(trifluoromethyl)benzamide] returned a chromatographic logP of 1.33. `N#Cc1c(C(F)(F)F)cc(C2CC2)nc1-n1ccc(NC(=O)c2ccccc2C(F)(F)F)n1` [Compound I-1-570, N-{1-[3-Cyano-6-cyclopropyl-4-(trifluoromethyl)pyridin-2-yl]-1H-pyrazol-3-yl}-2-(trifluoromethyl)benzamide] showed a chromatographic logP of 3.99. `O=C(Nc1ccn(-c2nccc(-c3ccc(F)cc3)c2F)n1)c1ccccc1C(F)(F)F` [Compound I-1-640, N-{1-[3-Fluoro-4-(4-fluorophenyl)pyridin-2-yl]-1H-pyrazol-3-yl}-2-(trifluoromethyl)benzamide] gave a chromatographic logP of 3.4.

Staying with this data set, now noted: reversed-phase column (C 18), acidic range (pH 3.4), 55° C.
As a reminder, the log P is a log measure of how a compound divides between an organic and an aqueous phase. Higher therefore signals higher lipophilicity. For `O=C(Nc1ccn(-c2ccccc2Cl)n1)c1ccccc1C(F)(F)F` [Compound I-1-14], the “log P” value is reported as 2.96.

Regarding `O=C(Nc1cnn(-c2ncccc2Cl)n1)c1c(F)cccc1C(F)(F)F` [Compound I-2-57], the “log P” value was found to be 2.48.

Consider `Cn1cc(C(=O)Nc2ccn(-c3c(F)cccc3F)n2)c(I)n1` [Compound I-1-108], for which the “log P” value stood at 2.03.

For the compound `O=C(Nc1cnn(-c2c(F)cccc2F)n1)c1c(F)cccc1F` [Compound I-2-77], the “log P” value is reported as 2.59. `O=C(Nc1ccn(-c2ncc(F)cc2F)n1)c1cc(F)ccc1C(F)(F)F` [Compound I-1-506]: the “log P” value was 2.65. On the same count and under the same terms, next, `O=C(Nc1ccn(-c2ccc(Cl)cc2Cl)n1)c1ccccc1Cl` [Compound I-1-200]: 3.40; `O=C(Nc1ccn(-c2ccccc2Br)n1)c1ccccc1Br` [Compound I-1-52]: 2.86.

As for `Cc1nn(C)c(C)c1C(=O)Nc1ccn(-c2ncc(F)cc2F)n1` [Compound I-1-445], the “log P” value is 1.60. In the case of `Cn1cccc1C(=O)Nc1ccn(-c2c(F)cccc2F)n1` [Compound I-1-645], the “log P” value is 2.41. Regarding `O=C(Nc1ccn(-c2cnc(Cl)cn2)n1)c1c(F)cccc1F` [Compound I-1-387], the “log P” value is listed as 2.67. On to `O=C(Nc1cnn(-c2ncc(F)cc2F)n1)c1ccccc1C(F)(F)F` [Compound I-2-66], for which the “log P” value is on record as 2.43. As for `Nc1cc(NC(=O)c2ccccc2Cl)nn1-c1ccccc1Cl` [Compound I-1-361], the lipophilicity (log P) was found to be 1.88. Same read-out and setting: next, `Cn1ccc([N+](=O)[O-])c1C(=O)Nc1ccn(-c2ncc(F)cc2F)n1` [Compound I-1-452]: 2.27; `O=C(Nc1ccn(-c2c(F)cccc2F)n1)c1c(F)cccc1Cl` [Compound I-1-85]: 2.60; `CC1=C(C(=O)Nc2ccn(-c3ncc(F)cc3F)n2)OCCO1` [Compound I-1-639]: 2.16. Consider `O=C(c1ccccc1C(F)(F)F)N(CC(F)F)c1ccn(-c2c(F)cccc2F)n1` [Compound I-1-264], for which the “log P” value was determined as 3.38. As for `O=C(Nc1ccn(-c2ncccc2Cl)n1)c1ccccc1C(F)(F)F` [Compound I-1-135], the “log P” value is listed as 2.41. As for `O=C(Nc1ccn(-c2ncc(F)cc2F)n1)c1ccccc1OC(F)F` [Compound I-1-459], the “log P” value is reported as 2.50. Consider `Cn1ncc(Cl)c1C(=O)Nc1ccn(-c2c(F)cccc2F)n1` [Compound I-1-311], for which the “log P” value is 2.46. With `CSc1ncccc1C(=O)Nc1ccn(-c2ncc(F)cc2F)n1` [Compound I-1-461], the “log P” value is reported as 2.14. For `O=C(NC1=NN(c2c(F)cccc2F)CC1)c1ccccc1I` [Compound I-4-4], the “log P” value worked out at 2.31. Take `O=C(Nc1ccn(-c2c(F)cccc2F)n1)c1ccccc1O` [Compound I-1-87]: the “log P” value is 2.66.

Consider `O=C(Nc1ccn(-c2cnc(Cl)cn2)n1)c1ccccc1Cl` [Compound I-1-389], for which the “log P” value came to 2.82. Turning to `O=C(Nc1ccn(-c2ncc(F)cc2F)n1)C1=C(C(F)F)OCCS1` [Compound I-1-636], the “log P” value amounted to 2.31.

For `CC(C)n1nc([N+](=O)[O-])c(Cl)c1C(=O)Nc1ccn(-c2c(F)cccc2F)n1` [Compound I-1-310], the “log P” value was found to be 3.28. For `O=C(Nc1ccn(-c2ncccc2C(F)(F)F)n1)c1cccnc1C(F)(F)F` [Compound I-1-426], the “log P” value was found to be 2.69.

Consider `Cc1c([N+](=O)[O-])c(C(=O)Nc2ccn(-c3c(F)cccc3F)n2)nn1C` [Compound I-1-234], for which the “log P” value was determined as 2.03. Still for that read-out and setting: next, `CCn1ncc(Br)c1C(=O)Nc1ccn(-c2c(F)cccc2F)n1` [Compound I-1-299]: 2.84; `O=C(Nc1ccn(-c2cc(F)cnc2F)n1)c1ccccc1C(F)(F)F` [Compound I-1-224]: 2.72; `C=CCN(C(=O)c1ccccc1C(F)(F)F)c1ccn(-c2c(F)cccc2F)n1` [Compound I-1-255]: 3.44. `O=C(Nc1ccn(-c2c(F)cccc2F)c1)c1ccsc1I` [Compound I-3-7]: the “log P” value worked out at 3.07. Still for that read-out and setting: next, `Cc1nc(-n2ccc(NC(=O)c3c(F)cccc3F)n2)c(F)cc1F` [Compound I-1-441]: 2.56. Still for that read-out and setting: the figure for `O=C(Nc1ccn(-c2c(F)cccc2F)n1)c1c(F)cccc1I` [Compound I-1-277] is 2.74; for `Cn1cnc(C(=O)Nc2ccn(-c3ncc(F)cc3F)n2)c1[N+](=O)[O-]` [Compound I-1-454] it is 1.58.

Turning to `O=C(Nc1ccn(-c2cc(F)ccc2F)n1)c1ncccc1Cl` [Compound I-1-220], the “log P” value worked out at 3.00. Turning to `Cn1cc(C(=O)Nc2ccn(-c3c(F)cccc3F)n2)c(C(F)(F)F)c1` [Compound I-1-240], the “log P” value is 2.52. Turning to `O=C(Nc1ccn(-c2c(F)cccc2F)n1)c1ccsc1I` [Compound I-1-105], the “log P” value amounted to 2.76. In the case of `O=C(Nc1ccn(-c2cccc(Cl)c2Cl)n1)c1ccccc1Cl` [Compound I-1-188], the “log P” value amounted to 3.38. Take `Cn1nc(C(F)F)c(C(=O)Nc2ccn(-c3ccccc3Cl)n2)c1F` [Compound I-1-49]: the “log P” value is recorded as 2.59. The same measure, in the same setting: next, `O=C(Nc1ccn(-c2cnc(Cl)cn2)n1)c1ccccc1Br` [Compound I-1-388]: 2.84; `Cc1cccc(C)c1C(=O)Nc1ccn(-c2ncc(F)cc2F)n1` [Compound I-1-480]: 2.51; `Cn1cc(C(=O)Nc2ccn(-c3ncc(Cl)cc3Cl)n2)c(I)n1` [Compound I-1-435]: 1.83.

Regarding `Cc1nonc1C(=O)Nc1ccn(-c2c(F)cccc2F)n1` [Compound I-1-116], the “log P” value worked out at 2.53. As to `O=C(Nc1ccn(-c2c(F)cccc2F)n1)c1cccnc1CC(F)(F)F` [Compound I-1-246], the “log P” value stood at 2.35.

With `O=C(Nc1cnn(-c2ncc(F)cc2F)n1)c1ccsc1I` [Compound I-2-72], the “log P” value came to 2.44. The same measure, in the same setting: next, `Cc1occc1C(=O)Nc1ccn(-c2c(F)cccc2F)n1` [Compound I-1-281]: 2.43; `Cc1nc(-n2ccc(NC(=O)c3ccccc3C(F)(F)F)n2)c(F)cc1F` [Compound I-1-439]: 2.85. Consider `O=C(Nc1cnn(-c2ncc(Cl)cc2Cl)n1)c1cccnc1C(F)(F)F` [Compound I-2-64], for which the “log P” value is 2.54. With `O=C(Nc1ccn(-c2nc(F)c(F)cc2F)n1)c1ccccc1Cl` [Compound I-1-163], the “log P” value came to 2.64. Take `O=C(Nc1ccn(-c2cc(F)ccc2F)n1)c1cccnc1Cl` [Compound I-1-218]: the “log P” value amounted to 2.28. The same measure, in the same setting: next, `O=C(Nc1ccn(-c2ncc(C(F)(F)F)cc2Cl)n1)c1ccccc1Cl` [Compound I-1-561]: 3.30. Regarding `O=C(Nc1ccn(-c2nccnc2F)n1)c1ncccc1C(F)(F)F` [Compound I-1-178], the “log P” value is recorded as 1.77. On the same count and under the same terms, the figure for `O=C(Nc1ccn(-c2ncnc(F)c2F)n1)c1c(F)cccc1F` [Compound I-1-171] is 2.29.

For the compound `Cc1nn(-c2ccccc2Cl)nc1NC(=O)c1ccccc1C(F)(F)F` [Compound I-2-21], the lipophilicity (log P) stood at 2.93. Turning to `CCn1ncc(Cl)c1C(=O)Nc1ccn(-c2c(F)cccc2F)n1` [Compound I-1-308], the “log P” value is recorded as 2.61. In the case of `CCC(C)n1ncc(I)c1C(=O)Nc1ccn(-c2c(F)cccc2F)n1` (stereo not shown) [Compound I-1-245], the “log P” value is on record as 3.47. As for `CC(=O)Nc1ccn(-c2c(F)cccc2F)n1` [N-[1-(2,6-Difluorophenyl)-1H-pyrazol-3-yl]acetamide], the chromatographic logP is 1.33.

As to `O=C(Nc1ccn(-c2c(F)cccc2F)c1)c1ccccc1I` [Compound I-3-3], the “log P” value was determined as 2.96.
